Source: patent publication US7728012B2, “Carboxamide compounds and their use as calpain inhibitors” (Abbott GmbH & Co. KG, priority 2006, dated 2010)

Key:
Type in all cases: biochemical
[1] = target: T1, recombinant human cathepsin S (Homo sapiens, UniProt P25774); assay: Cathepsin S kinetic fluorescence enzyme inhibition assay; conditions: selectivity ratio versus calpain I
T1 construct: purchased Calbiochem 219343; host or cells: E. coli
In short: (§1)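 Inhibition is measured at room temperature in cysteine-containing MES buffer, pH 6.0, by continuous fluorescence at 460 nm. Cathepsin S (0.5 nM) uses 20 μM Z-Val-Val-Arg-AMC; L (1 nM) and B (0.25 nM) use Z-Phe-Arg-AMC at 2 and 100 μM respectively.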

[2] = target: T2, cathepsin L isolated from human liver (Homo sapiens, UniProt P07711); assay: Cathepsin L kinetic fluorescence enzyme inhibition assay; conditions: selectivity ratio versus calpain I
T2 construct: cathepsin L—isolated from human liver; purchased Calbiochem 219402; host or cells: human liver (tissue isolate)
T2 sequence (P07711 114-333): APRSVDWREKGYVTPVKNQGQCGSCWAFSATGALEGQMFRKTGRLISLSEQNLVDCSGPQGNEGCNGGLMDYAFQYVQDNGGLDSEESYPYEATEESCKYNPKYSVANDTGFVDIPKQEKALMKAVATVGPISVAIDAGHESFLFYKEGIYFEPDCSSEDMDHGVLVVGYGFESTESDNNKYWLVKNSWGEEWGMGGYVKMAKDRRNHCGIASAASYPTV
In short: as §1

[3] = target: T3, calpain-I isolated from human erythrocytes (Homo sapiens, UniProt P07384); assay: Calpain I kinetic fluorescence enzyme inhibition assay; conditions: apparent Ki from IC50 by Cheng-Prussoff; average of 2 to 4 dose-effect plots
T3 construct: calpain-I—isolated from human erythrocytes; purchased Calbiochem 208713; host or cells: human erythrocytes (tissue isolate)
T3 sequence (P07384 1-714): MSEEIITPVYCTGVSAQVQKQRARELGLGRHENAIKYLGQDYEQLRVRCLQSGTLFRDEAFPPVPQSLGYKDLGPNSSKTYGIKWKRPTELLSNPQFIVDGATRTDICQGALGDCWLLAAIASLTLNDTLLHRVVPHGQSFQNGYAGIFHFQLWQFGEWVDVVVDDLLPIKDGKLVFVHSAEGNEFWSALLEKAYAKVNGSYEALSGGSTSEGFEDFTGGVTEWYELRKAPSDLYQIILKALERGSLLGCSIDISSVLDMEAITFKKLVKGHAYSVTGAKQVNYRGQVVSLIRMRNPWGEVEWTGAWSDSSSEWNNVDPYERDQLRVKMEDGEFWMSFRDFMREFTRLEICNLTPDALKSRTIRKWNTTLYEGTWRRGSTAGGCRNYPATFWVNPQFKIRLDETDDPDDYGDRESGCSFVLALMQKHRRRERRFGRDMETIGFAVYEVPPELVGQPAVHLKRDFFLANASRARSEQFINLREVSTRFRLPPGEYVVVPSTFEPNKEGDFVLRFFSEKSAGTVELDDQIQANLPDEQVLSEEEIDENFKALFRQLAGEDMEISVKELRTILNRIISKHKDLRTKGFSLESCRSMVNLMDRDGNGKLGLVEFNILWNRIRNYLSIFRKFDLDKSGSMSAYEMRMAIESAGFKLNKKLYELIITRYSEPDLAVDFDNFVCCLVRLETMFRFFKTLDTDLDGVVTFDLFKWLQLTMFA
T3 sequence (P04632 1-268 partner): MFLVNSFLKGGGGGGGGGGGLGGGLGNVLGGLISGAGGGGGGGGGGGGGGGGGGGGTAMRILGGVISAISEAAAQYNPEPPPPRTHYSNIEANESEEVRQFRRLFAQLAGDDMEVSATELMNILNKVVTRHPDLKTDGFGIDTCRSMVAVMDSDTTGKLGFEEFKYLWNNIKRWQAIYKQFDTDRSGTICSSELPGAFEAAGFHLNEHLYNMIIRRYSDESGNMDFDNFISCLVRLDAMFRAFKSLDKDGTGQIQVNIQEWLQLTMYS

[4] = target: T4, cathepsin K activated from recombinant human procathepsin K (Homo sapiens, UniProt P43235); assay: Cathepsin K kinetic fluorescence enzyme inhibition assay; conditions: selectivity ratio versus calpain I
T4 construct: purchased Calbiochem 342001; host or cells: E. coli
T4 sequence (P43235 115-329): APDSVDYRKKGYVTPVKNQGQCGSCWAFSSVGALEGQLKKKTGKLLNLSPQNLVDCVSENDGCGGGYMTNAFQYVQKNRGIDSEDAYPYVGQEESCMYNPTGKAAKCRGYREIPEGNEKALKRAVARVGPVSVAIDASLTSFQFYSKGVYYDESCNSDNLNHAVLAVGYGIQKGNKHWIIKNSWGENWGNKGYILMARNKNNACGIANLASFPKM

[5] = target: T5, cathepsin B isolated from human liver (Homo sapiens, UniProt P07858); assay: Cathepsin B kinetic fluorescence enzyme inhibition assay; conditions: selectivity ratio versus calpain I
T5 construct: cathepsin B—isolated from human liver; purchased Calbiochem 219362; host or cells: human liver (tissue isolate)
In short: as §1

T1 sequence (P25774 115-331): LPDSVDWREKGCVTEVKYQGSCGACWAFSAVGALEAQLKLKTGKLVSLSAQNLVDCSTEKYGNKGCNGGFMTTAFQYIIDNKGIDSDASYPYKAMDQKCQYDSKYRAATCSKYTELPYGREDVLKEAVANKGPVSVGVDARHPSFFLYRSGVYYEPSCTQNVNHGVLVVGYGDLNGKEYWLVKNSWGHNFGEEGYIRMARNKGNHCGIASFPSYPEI

| SMILES | Sel cat. S (Ki(cathepsin S)/Ki(calpain) ratio) [1] | Sel cat. L (Ki(cathepsin L)/Ki(calpain) ratio) [2] | Ki [3] [nM] | Sel cat. K (Ki(cathepsin K)/Ki(calpain) ratio) [4] | Sel cat. B (Ki(cathepsin B)/Ki(calpain) ratio) [5] |
| --- | --- | --- | --- | --- | --- |
| NC(=O)C(=O)C(Cc1ccccc1)NC(=O)c1cccnc1-n1ccc(-c2cc(F)cc(F)c2)n1 (stereo not shown) [Example 91, N-[3-Amino-2,3-dioxo-1-(phenylmethyl)propyl]-2-[3-(3,5-difluorophenyl)-1H-pyrazol-1-yl]pyridine-3-carboxamide] | ++ (Ki(cathepsin S)/Ki(calpain) ratio of ≧100) | ++ (Ki(cathepsin L)/Ki(calpain) ratio of ≧50) | ≤ 40 | + (10≦Ki(cathepsin K)/Ki(calpain)<30) | ++ (Ki(cathepsin B)/Ki(calpain) ratio of ≧30) |
| COc1ccc(CC(NC(=O)c2cccnc2-n2ccc(-c3ccccc3F)n2)C(=O)C(N)=O)cc1 (stereo not shown) [Example 92, N-(3-Amino-1-{[4-(methyloxy)phenyl]methyl}-2,3-dioxopropyl)-2-[3-(2-fluorophenyl)-1H-pyrazol-1-yl]pyridine-3-carboxamide] | ++ (Ki(cathepsin S)/Ki(calpain) ratio of ≧100) | ++ (Ki(cathepsin L)/Ki(calpain) ratio of ≧50) | 40 to 100 | + (10≦Ki(cathepsin K)/Ki(calpain)<30) | ++ (Ki(cathepsin B)/Ki(calpain) ratio of ≧30) |
| Cc1ccccc1-c1ccn(-c2ncccc2C(=O)NC(Cc2ccccc2)C(=O)C(N)=O)n1 (stereo not shown) [Example 93, N-[3-Amino-2,3-dioxo-1-(phenylmethyl)propyl]-2-[3-(2-methylphenyl)-1H-pyrazol-1-yl]pyridine-3-carboxamide] | ++ (Ki(cathepsin S)/Ki(calpain) ratio of ≧100) | ++ (Ki(cathepsin L)/Ki(calpain) ratio of ≧50) | ≤ 40 | + (10≦Ki(cathepsin K)/Ki(calpain)<30) | ++ (Ki(cathepsin B)/Ki(calpain) ratio of ≧30) |
| NC(=O)C(=O)C(Cc1ccccc1)NC(=O)c1cccnc1-n1ccc(-c2ccc(F)cc2F)n1 (stereo not shown) [Example 94, N-[3-Amino-2,3-dioxo-1-(phenylmethyl)propyl]-2-[3-(2,4-difluorophenyl)-1H-pyrazol-1-yl]pyridine-3-carboxamide] | ++ (Ki(cathepsin S)/Ki(calpain) ratio of ≧100) | ++ (Ki(cathepsin L)/Ki(calpain) ratio of ≧50) | 40 to 100 | + (10≦Ki(cathepsin K)/Ki(calpain)<30) | ++ (Ki(cathepsin B)/Ki(calpain) ratio of ≧30) |
| NC(=O)C(=O)C(Cc1ccccc1)NC(=O)c1cccnc1-n1ccc(-c2c(Cl)cccc2Cl)n1 (stereo not shown) [Example 95, N-[3-Amino-2,3-dioxo-1-(phenylmethyl)propyl]-2-[3-(2,6-dichlorophenyl)-1H-pyrazol-1-yl]pyridine-3-carboxamide] | ++ (Ki(cathepsin S)/Ki(calpain) ratio of ≧100) | ++ (Ki(cathepsin L)/Ki(calpain) ratio of ≧50) | ≤ 40 | ++ (Ki(cathepsin K)/Ki(calpain) ratio of ≧30) | ++ (Ki(cathepsin B)/Ki(calpain) ratio of ≧30) |
| NC(=O)C(=O)C(Cc1ccccc1)NC(=O)c1cccnc1-n1ccc(-c2cccc(OCc3ccccc3)c2)n1 (stereo not shown) [Example 96, N-[3-Amino-2,3-dioxo-1-(phenylmethyl)propyl]-2-(3-{3-[(phenylmethyl)oxy]phenyl}-1H-pyrazol-1-yl)pyridine-3-carboxamide] | ++ (Ki(cathepsin S)/Ki(calpain) ratio of ≧100) | ++ (Ki(cathepsin L)/Ki(calpain) ratio of ≧50) | ≤ 40 | ++ (Ki(cathepsin K)/Ki(calpain) ratio of ≧30) | ++ (Ki(cathepsin B)/Ki(calpain) ratio of ≧30) |
| COc1ccc(CC(NC(=O)c2cccnc2-n2ccc(-c3ccc(F)cc3F)n2)C(=O)C(N)=O)cc1 (stereo not shown) [Example 97, N-(3-Amino-1-{[4-(methyloxy)phenyl]methyl}-2,3-dioxopropyl)-2-[3-(2,4-difluorophenyl)-1H-pyrazol-1-yl]pyridine-3-carboxamide] | ++ (Ki(cathepsin S)/Ki(calpain) ratio of ≧100) | ++ (Ki(cathepsin L)/Ki(calpain) ratio of ≧50) | ≤ 40 | + (10≦Ki(cathepsin K)/Ki(calpain)<30) | ++ (Ki(cathepsin B)/Ki(calpain) ratio of ≧30) |
| COc1ccc(CC(NC(=O)c2cccnc2-n2ccc(-c3ccc(Cl)cc3Cl)n2)C(=O)C(N)=O)cc1 (stereo not shown) [Example 98, N-(3-Amino-1-{[4-(methyloxy)phenyl]methyl}-2,3-dioxopropyl)-2-[3-(2,4-dichlorophenyl)-1H-pyrazol-1-yl]pyridine-3-carboxamide] | ++ (Ki(cathepsin S)/Ki(calpain) ratio of ≧100) | ++ (Ki(cathepsin L)/Ki(calpain) ratio of ≧50) | ≤ 40 | ++ (Ki(cathepsin K)/Ki(calpain) ratio of ≧30) | ++ (Ki(cathepsin B)/Ki(calpain) ratio of ≧30) |
| NC(=O)C(=O)C(Cc1ccccc1)NC(=O)c1cccnc1-n1ccc(-c2ccc(N3CCOCC3)cc2Cl)n1 (stereo not shown) [Example 99, N-[3-Amino-2,3-dioxo-1-(phenylmethyl)propyl]-2-[3-(2-chloro-4-morpholin-4-ylphenyl)-1H-pyrazol-1-yl]pyridine-3-carboxamide] | ++ (Ki(cathepsin S)/Ki(calpain) ratio of ≧100) | ++ (Ki(cathepsin L)/Ki(calpain) ratio of ≧50) | ≤ 40 | ++ (Ki(cathepsin K)/Ki(calpain) ratio of ≧30) | ++ (Ki(cathepsin B)/Ki(calpain) ratio of ≧30) |
| NC(=O)C(=O)C(Cc1ccccc1)NC(=O)c1cccnc1-n1cc2c(n1)-c1ccccc1OC2 (stereo not shown) [Example 100, N-[3-Amino-2,3-dioxo-1-(phenylmethyl)propyl]-2-chromeno[4,3-c]pyrazol-2(4H)-ylpyridine-3-carboxamide] | ++ (Ki(cathepsin S)/Ki(calpain) ratio of ≧100) | ++ (Ki(cathepsin L)/Ki(calpain) ratio of ≧50) | ≤ 40 | ++ (Ki(cathepsin K)/Ki(calpain) ratio of ≧30) | + (10≦Ki(cathepsin B)/Ki(calpain)<30) |
| NC(=O)C(=O)C(Cc1ccccc1)NC(=O)c1cccnc1-n1ccc(-c2ccc(N3CCOCC3)cc2F)n1 (stereo not shown) [Example 102, N-[3-Amino-2,3-dioxo-1-(phenylmethyl)propyl]-2-[3-(2-fluoro-4-morpholin-4-ylphenyl)-1H-pyrazol-1-yl]pyridine-3-carboxamide] | ++ (Ki(cathepsin S)/Ki(calpain) ratio of ≧100) | ++ (Ki(cathepsin L)/Ki(calpain) ratio of ≧50) | ≤ 40 | ++ (Ki(cathepsin K)/Ki(calpain) ratio of ≧30) | + (10≦Ki(cathepsin B)/Ki(calpain)<30) |
